The structures appear in SMILES notation.

The test system of one series is E. coli culture. As to the kind of experiment: Toxicity to bacteria (absorbance of bacteria culture, OD600nm). Format: cell-based, Escherichia coli. The following applies: 0.5 mM; for toxicity throughout the assay: 8 hours, versus negative control without inducer. The protocol:
(§1) The bacteria strain E. coli XL1—Blue MRF′ Electroporation-competent cells (Stratagene #200158) containing pGEM-T vector was grown in LB medium adding with appropriate antibiotic (ampicillin). The starter culture was grown by inoculating plasmid containing cells in LB medium added with ampicillin and incubated overnight at 37° C. with shaking at 250 rpm. When culture reached the desired OD, the induction was started.
The absorbance of the bacteria culture was measured (OD600nm) every hour during 8 hours after the substrate addition. The absorbance was plotted as a function of time representing the toxicity for each inducer. The negative control (no toxicity) consists on an assay without inducer. Assays were performed as triplicate.

Series [1] is described as follows: Stability of compounds in D2O solution at room temperature, followed by 19F NMR and 1H NMR. Format: physicochemical. The protocol:
Compounds T-16 and T-18 were dissolved in D2O and the resulting solutions were kept at room temperature. The stability of the compound was studied by ^19F NMR and ^1H NMR.

The test system of series [2] is β-galactosidase expression (lacZ promoter). Put plainly: Induction of β-galactosidase expression in E. coli (ONPG assay, OD420nm). To be noted: for effectiveness as inducer compared with IBCG / effectiveness as inducer compared with IPTG: during 3 h following the substrate addition; for induction of β-galactosidase expression/transcription: inducer 0.5 mM, until 3 hours after addition of ONPG substrate; for efficacy of induction overtime: up to 8 h following substrate addition. Format: cell-based, Escherichia coli. Here is the method:
as §1
For each assay the starter culture was appropriately diluted (OD600=0.2) in 1.5 mL of LB medium with 3 μg/mL of ampicillin
β-galactosidase expression is then induced by addition of either IPTG (Sigma I1284), IBCG or Compounds T-16 and T-18 to final concentrations of 0.5 or 1 mM. After this induction the cultures are incubated for 3 hours at 37° C. with shaking at 250 rpm.
The β-galactosidase activity was assayed by adding 0.5 mg/mL of the ortho 2-nitrophenyl-β-D-galactopyranoside (ONPG Sigma N1127) as chromogenic substrate. ONPG is hydrolyzed by β-galactosidase to yield galactose and ortho-Nitrophenol, which is yellow in color and absorbs light at 420 nm. The intensity of the color can be used to determine the β-galactosidase activity.
Absorbance was measured (OD420nm) every hour during 8 hours after the substrate addition. The absorbance was plotted as a function of time representing the induction kinetic of β-galactosidase activity for each inducer and each concentration tested. Assays were performed as triplicate.

In series [3] the test system is expression of Green Fluorescent Protein UV (GFPuv) in BLR(DE3) E. coli. As to the kind of experiment: Recombinant GFPuv protein production, total and soluble fractions (SDS-PAGE densitometry). Format: cell-based, Escherichia coli. To be noted: inducer 0.1 mM, 0.05 mM and 0.01 mM. Here is the method:
Properties: MW: 27 763 Da. Theoretical pI: 6.13—Theoretical Absorption coefficient: 0.788—Number of Cys: 2 Construction of One Expression Strain: • Construct GFPUV-pET30b/3 was transformed into BLR(DE3) E. coli expression strain. • Cultures were performed from one single colony in a semi-defined Riesenberg medium in order to produce a Research Cell Bank (20 tubes of 1 mL stored at <−70° C.). Pre-cultures and Cultures Conditions: • Pre-cultures and cultures were performed in semi-defined Riesenberg medium, 50 mL and 250 mL flasks-scale, respectively. […] Analysis by SDS-PAGE Stained by Coomassie Blue • Sample: 10 μl deposit of suspension at equivalent OD600nm=8. • The proteins were separated by SDS-PAGE 4-12%, and then colored by Coomassie blue. • Quantitative measurement by densitometry and comparison with standard range of proteins.
Quantity of proteins (μg) was plotted as a function of time representing the kinetic of induction of GFPuv expression for each inducer and/or concentration tested.
The induction profile of GFPuv was evaluated for both IPTG and T-18 inducers at different concentrations. […]

In the case of `CC(C)(O)C(F)(F)[C@@H]1O[C@H](CO)[C@H](O)[C@H](O)[C@H]1O` [Compound T-16], the “toxicity throughout the assay” value with E. coli culture was “medium toxicity”. For the same compound, the “degradation in solution (stability by 19F NMR and 1H NMR)” value in series [1] (10 weeks follow up) is listed as “without any degradation”. In addition, in series [2] (0.5 mM), the “effectiveness as inducer compared with IBCG” value is recorded as “more effective inducers than IBCG” and the “effectiveness as inducer compared with IPTG” value was “as effective inducers than IPTG”. For the same compound, the “induction of β-galactosidase expression/transcription” value in series [2] was “efficient inducers”.

Turning to `CC(C)S[C@@H]1O[C@H](CO)[C@H](O)[C@H](O)[C@H]1O` [IPTG, isopropyl-β-D -thiogalactopyranoside, reference compound], the “toxicity throughout the assay” value in the series on E. coli culture is given as “medium toxicity”. For the same compound, the “efficacy of induction overtime” value in series [2] (0.5 mM) was “efficacy decrease”.

In the case of `CC(C)C(F)(F)[C@@H]1O[C@H](CO)[C@H](O)[C@H](O)[C@H]1O` [Compound T-18], the “toxicity compared with IPTG” value in the series on E. coli culture (after 3 h up to 8 h following the substrate addition) is on record as “less toxic than IPTG”. In the series with E. coli culture (until 3 h following the substrate addition), the “toxicity compared with IPTG” value is recorded as “as toxic as IPTG”. For the same compound, the “degradation in solution (stability by 19F NMR and 1H NMR)” value in series [1] (24 weeks follow up) is reported as “without any degradation”. The “final quantity of GFPuv produced (total fraction) compared with IPTG” value in series [3] was “higher than with IPTG”. For the same compound, the “effectiveness relative to IPTG” value in series [2] (0.5 mM, 8 h following substrate addition) is “at least 3 times”. For the same compound, in series [2] (0.5 mM), the “effectiveness as inducer compared with IBCG” value is recorded as “more effective inducers than IBCG”, the “effectiveness as inducer compared with IPTG” value is on record as “as effective inducers than IPTG” and the “efficacy of induction overtime” value was “remains effective overtime”. For the same compound, the “induction of β-galactosidase expression/transcription” value in series [2] is on record as “efficient inducers”.
